Test results from patent US4451284A, “Derivatives of 2-nitro-4- or -5-pyridyloxyphenylphosphonic acid, the preparation thereof, the use thereof as herbicides and/or plant growth regulators” (Ciba-Geigy Corporation, priority 1981, dated 1984).
Like-named read-outs stand apart in the source and are kept apart here.

Legend:
weeds = experiment: Postemergence herbicidal action (contact herbicide), compounds of formula I, overall; assay type: in vivo; conditions: 4 kg a.i./ha, 15 days later
Protocol: (§1) The weeds to be tested are sprayed postemergence (in the 4- to 6-leaf stage) with an aqueous dispersion prepared from compounds of formula I formulated as (a) a 10% or (b) a 25% wettable powder or (c) a 25% emulsifiable concentrate, at a rate of application of 4 kg a.i./ha. The plants are kept at 24°-26° C. and 45-60% relative humidity. The test is evaluated 15 days later in accordance with the same rating as used in the preemergence test (Example 19).

Solanum [1] = experiment: Postemergence herbicidal action (contact herbicide), compounds of formula I, Solanum; assay type: in vivo; parameters: key: 1: plants have not germinated or have completely died off; 2-3: very pronounced action; 4-6: medium action; 7-8: slight action; 9: no action (as untreated controls); conditions: 4 kg a.i./ha, 15 days
Protocol: as §1

Sinapis [2] = experiment: Postemergence herbicidal action (contact herbicide), compounds of formula I, Sinapis; assay type: in vivo; parameters: key: 1: plants have not germinated or have completely died off; 2-3: very pronounced action; 4-6: medium action; 7-8: slight action; 9: no action (as untreated controls); conditions: 4 kg a.i./ha, 15 days
Protocol: as §1

Setaria [3] = experiment: Postemergence herbicidal action (contact herbicide), compounds of formula I, Setaria; assay type: in vivo; conditions: 4 kg a.i./ha, 15 days
Protocol: as §1

Erysiphe graminis = experiment: Action against Erysiphe graminis on barley; assay type: in vivo; conditions: 0.02% spray mixture, 10 days
Protocol: Barley plants about 8 cm in height are sprayed with a spray mixture (0.02% of compound of formula I) prepared from a 25% emulsifiable concentrate. After 3-4 hours the plants are dusted with conidia of Erysiphe graminis. The infected barley plants are then stood in a greenhouse at about 22° C. Evaluation of fungus attack is made 10 days later.

wheat [4] = experiment: Stimulation of root growth in wheat (plastic cylinders, 10 days); assay type: in vivo; conditions: seed treatment 4-130 mg per kg of seeds or soil spray 0.3 to 3 kg/ha; after 10 days
Protocol: Compounds of formula I are applied in the form of aqueous dispersions prepared from a 25% wettable powder. The test is carried out with seeds which are sown in plastic cylinders measuring 5×30 cm and filled with soil (10 seeds per cylinder). The seeds are (a) treated before sowing at rates of application of 4-130 mg per kg of seeds or (b) are untreated and the soil is sprayed with a dispersion of the active ingredient at rates of application of 0.3 to 3 kg/ha. The cylinders are kept under controlled conditions in a climatic chamber. After 10 days, the seedlings are carefully washed with water to remove the soil and the length and dry weight of the roots are assessed.

wheat [5] = experiment: Stimulation of root growth in wheat (plastic boxes, 30 days); assay type: in vivo; conditions: for root dry weight expressed as % of controls / root length expressed as % of controls: 30 days, controls = 100%
Protocol: (§2) Compounds of formula I are employed in the form of aqueous dispersions prepared from a 25% wettable powder. The test is carried out with seeds which are sown in plastic boxes measuring 5×35×60 cm and filled with soil (15 seeds per box). The seeds are treated before sowing at rates of application of 45-500 mg per kg of seeds. The boxes are kept under controlled conditions in a climatic chamber. After 30 days, the plants are carefully washed with water to remove the soil and the length and dry weight of the roots are assessed.

cotton = experiment: Stimulation of root growth in cotton (plastic boxes, 30 days); assay type: in vivo; conditions: for root dry weight expressed as % of controls / root length expressed as % controls: 30 days, controls = 100%
Protocol: as §2

mould fungi = experiment: Action against mould fungus on moist maize; assay type: in vivo, mixed population of mould fungi; conditions: for reduction of fungus attack compared with untreated controls: 0.06% a.i.
Excerpt: Dry maize grains (portions of 80 g each) are thoroughly mixed in sealable plastic beakers with an aqueous suspension prepared from a 25% wettable powder formulation of a compound of formula I. The application is so adjusted as to give a concentration of 0.06% of active ingredient, based on the weight of dry maize. A moistened slip of paper provides for a saturated humid atmosphere in the beakers which are filled with maize and then sealed. A mixed population of mould fungi develops spontaneously after incubation for 2-3 weeks at about 20° C. in the maize samples which have been treated only with water. The effectiveness of the test compounds is assessed by evaluating the degree of fungus development after 3 weeks.
A visual assessment is made after each month according to the same criteria as specified above.

soya bean plants = experiment: Regulation of the growth of soya bean plants; conditions: controls = 100%
Xanthomonas oryzae [6] = assay type: in vivo; conditions: for bactericidal properties in words: residual-protective action
Xanthomonas oryzae [7] = assay type: in vivo; conditions: for bactericidal activity: based on the volume of the soil
Setaria [8] = experiment: Preemergence herbicidal action (inhibition of germination), Setaria; assay type: in vivo; parameters: key to preemergence herbicidal action rating: 1: plants have not germinated or have completely died off; 2-3: very pronounced action; 4-6: medium action; 7-8: slight action; 9: no action (as untreated controls); conditions: 4 kg a.i./ha, after 3 weeks
Protocol: (§3) In a greenhouse, immediately after sowing seeds of test plants in seed dishes, the surface of the soil is treated with an aqueous dispersion prepared from a 10% wettable powder formulation of test compounds of formula I. Concentrations of 4 kg of active ingredient per hectare are used. The seed dishes are kept in the greenhouse at 22°-25° C. and 50-70% relative humidity, and the test is evaluated after 3 weeks in accordance with the following rating: […]

Stellaria = experiment: Preemergence herbicidal action (inhibition of germination), Stellaria; assay type: in vivo; parameters: key to preemergence herbicidal action rating: 1: plants have not germinated or have completely died off; 2-3: very pronounced action; 4-6: medium action; 7-8: slight action; 9: no action (as untreated controls); conditions: 4 kg a.i./ha, after 3 weeks
Protocol: as §3

Sinapis [9] = experiment: Preemergence herbicidal action (inhibition of germination), Sinapis; assay type: in vivo; conditions: 4 kg a.i./ha, after 3 weeks
Protocol: as §3

Phaseolus = experiment: Postemergence herbicidal action (contact herbicide), compounds of formula II, Phaseolus; assay type: in vivo; parameters: key to postemergence herbicidal action rating: 1: plants completely withered; 2-3: very pronounced action; 4-6: medium action; 7-8: insignificant action; 9: no action (as untreated controls); conditions: 4 kg a.i./ha, 15 days; for postemergence herbicidal action rating: 25% wettable powder; for herbicidal action in words: postemergence
Protocol: (§4) The plants for testing are sprayed postemergence (in the 4- to 6-leaf stage) at a concentration of 4 kg a.i./ha with an aqueous dispersion prepared from a compound of formula II formulated as a 25% wettable powder. The plants are then kept at 24°-26° C. and 45-60% relative humidity. The test is evaluated 15 days later according to the following rating: […]

Solanum [10] = experiment: Postemergence herbicidal action (contact herbicide), compounds of formula II, Solanum; assay type: in vivo; parameters: key to postemergence herbicidal action rating: 1: plants completely withered; 2-3: very pronounced action; 4-6: medium action; 7-8: insignificant action; 9: no action (as untreated controls); conditions: 4 kg a.i./ha, 15 days; for postemergence herbicidal action rating: 25% wettable powder; for herbicidal action in words: postemergence
Protocol: as §4

[11] = formulation (c) 25% emulsifiable concentrate
[12] = seed treatment 45-500 mg per kg of seeds, after 30 days
[13] = formulation (b) 25% wettable powder
[14] = formulation (a) 10% wettable powder

## COP(=O)(OC)c1cc(Oc2ccc(C(F)(F)F)cn2)ccc1[N+](=O)[O-] [Compound 1]
weeds
  postemergence effectiveness in words: very effective
Solanum [1]; [11]
  postemergence herbicidal action rating: 4
Sinapis [2]; [11]
  postemergence herbicidal action rating: 3
Setaria [3]; [11]
  postemergence herbicidal action rating: 4
Erysiphe graminis; 25% emulsifiable concentrate, untreated = 100% attack
  reduction of fungus attack compared with untreated controls: 80-95%
Erysiphe graminis
  effectiveness in words: particularly effective

## O=[N+]([O-])c1ccc(Oc2ccc(C(F)(F)F)cn2)cc1P(=O)(O)O [Compound 3]
Wheat [4]
  root growth stimulation effectiveness in words: very effective
Wheat [5]; 45 mg a.i./kg of seeds
  root dry weight expressed as % of controls: 105 % of controls
  root length expressed as % of controls: 98 % of controls
Wheat [5]; 150 mg a.i./kg of seeds
  root dry weight expressed as % of controls: 112 % of controls
  root length expressed as % of controls: 107 % of controls
Wheat [5]; 500 mg a.i./kg of seeds
  root dry weight expressed as % of controls: 110 % of controls
  root length expressed as % of controls: 107 % of controls
Wheat [5]; [12]
  root growth stimulation effectiveness in words: every effective
cotton; 45 mg a.i./kg of seeds
  root dry weight expressed as % of controls: 105 % of controls
  root length expressed as % controls: 122 % controls
cotton; 150 mg a.i./kg of seeds
  root dry weight expressed as % of controls: 97 % of controls
  root length expressed as % controls: 111 % controls
cotton; 500 mg a.i./kg of seeds
  root dry weight expressed as % of controls: 129 % of controls
  root length expressed as % controls: 122 % controls
cotton; [12]
  root growth stimulation effectiveness in words: every effective
Mould fungi; after 3 weeks
  reduction of fungus attack compared with untreated controls: 80-95%
Mould fungi; after 3 weeks and a further month
  reduction of fungus attack compared with untreated controls: 80-95%
Mould fungi; after 3 weeks, a further month and yet a further month
  reduction of fungus attack compared with untreated controls: 50-80%
Mould fungi; 0.06% of active ingredient on dry maize
  fungicidal activity in words: particularly pronounced fungicidal activity
Soya bean plants; 0.08 kg a.i./ha
  Weight of pods as % of controls: 119 % of controls
  no. of pods as % of controls: 107 % of controls
Soya bean plants; 0.40 kg a.i./ha
  Weight of pods as % of controls: 119 % of controls
  no. of pods as % of controls: 119 % of controls
Soya bean plants; 0.80 kg a.i./ha
  Weight of pods as % of controls: 135 % of controls
  no. of pods as % of controls: 109 % of controls
Soya bean plants; 4.00 kg a.i./ha
  Weight of pods as % of controls: 108 % of controls
  no. of pods as % of controls: 98 % of controls

## COP(=O)(OC)c1cc(Oc2ncc(Cl)cc2Cl)ccc1[N+](=O)[O-] [Compound 4, Dimethyl 2-nitro-5-(3',5'-dichloro-2'-pyridyloxy)phenylphosphonate]
weeds
  postemergence effectiveness in words: very effective
Solanum [1]; [13]
  postemergence herbicidal action rating: 2
Sinapis [2]; [13]
  postemergence herbicidal action rating: 3
Setaria [3]; [13]
  postemergence herbicidal action rating: 3
Xanthomonas oryzae [6]; concentration of 0.0006%
  action: 80-95%
Xanthomonas oryzae [6]; concentration of 0.006%
  action: over 95%
Xanthomonas oryzae [6]
  bactericidal properties in words: pronounced bactericidal properties
Xanthomonas oryzae [7]; concentration of 0.0006%
  bactericidal activity: 50-80%
Xanthomonas oryzae [7]; concentration of 0.006%
  bactericidal activity: over 95%
Xanthomonas oryzae [7]; systemic action
  bactericidal activity in words: pronounced bactericidal activity

## COP(=O)(OC)c1cc(Oc2ncc(C(F)(F)F)cc2Cl)ccc1[N+](=O)[O-] [Compound 6, Dimethyl 2-nitro-5-(3'-chloro-5'-trifluoromethyl-2'-pyridyloxy)phenylphosphonate]
Setaria [8]; 10% wettable powder
  preemergence herbicidal action rating: 1
Setaria [8]
  preemergence effectiveness in words: very effective
Stellaria; 10% wettable powder
  preemergence herbicidal action rating: 1
Stellaria
  preemergence effectiveness in words: very effective
Sinapis [9]; 10% wettable powder
  preemergence herbicidal action rating: 2
Sinapis [9]
  preemergence effectiveness in words: very effective
weeds
  postemergence effectiveness in words: very effective
Solanum [1]; [14]
  postemergence herbicidal action rating: 1
Sinapis [2]; [14]
  postemergence herbicidal action rating: 1
Setaria [3]; [14]
  postemergence herbicidal action rating: 3
Xanthomonas oryzae [6]; concentration of 0.02%
  action: over 95%
Xanthomonas oryzae [6]
  bactericidal properties in words: pronounced bactericidal properties

## CCOP(=O)(OCC)c1cc(Oc2ncc(C(F)(F)F)cc2Cl)ccc1[N+](=O)[O-] [Compound 7, Diethyl 2-nitro-5-(3'-chloro-5'-trifluoromethyl-2'-pyridyloxy)phenylphosphonate]
weeds
  postemergence effectiveness in words: very effective
Solanum [1]; [11]
  postemergence herbicidal action rating: 1
Sinapis [2]; [11]
  postemergence herbicidal action rating: 2
Setaria [3]; [11]
  postemergence herbicidal action rating: 3

## CCOP(=O)(OCC)c1cc(Oc2ncc(Cl)cc2Cl)ccc1[N+](=O)[O-] [Compound 9, Diethyl 2-nitro-5-(3',5'-dichloro-2'-pyridyloxy)phenylphosphonate]
weeds
  postemergence effectiveness in words: very effective
Solanum [1]; [11]
  postemergence herbicidal action rating: 1
Sinapis [2]; [11]
  postemergence herbicidal action rating: 2
Setaria [3]; [11]
  postemergence herbicidal action rating: 2

## O=[N+]([O-])c1ccc(Oc2ncc(C(F)(F)F)cc2Cl)cc1[N+](=O)[O-] [II-2, 1,2-dinitro-4-(3'-chloro-5'-trifluoromethyl-2'-pyridyloxy)benzene]
Phaseolus
  postemergence herbicidal action rating: 1
  herbicidal action in words: excellent herbicidal action
Solanum [10]
  postemergence herbicidal action rating: 1
  herbicidal action in words: excellent herbicidal action

## O=[N+]([O-])c1ccc(Oc2ccc(C(F)(F)F)cn2)cc1[N+](=O)[O-] [II-3, 1,2-dinitro-4-(5'-trifluoromethyl-2'-pyridyloxy)benzene]
Phaseolus
  postemergence herbicidal action rating: 1
  herbicidal action in words: excellent herbicidal action
Solanum [10]
  postemergence herbicidal action rating: 3
  herbicidal action in words: excellent herbicidal action
